Data published in patent US20120108501A1, “Protease Inhibitors” (priority 2009, published 2012).

experiment: Pharmacokinetics of released PEGylated protease inhibitor following P.O. administration of prodrugs in rats; type: in vivo, male Sprague-Dawley rats; parameters: AUCall Mean: concentration or dose not given beside the values; C24 Mean: unit not given here; conditions: concentration at 24 hours; mPEG5-atazanavir in plasma after PO administration of mPEG5-ATV or of the listed prodrug, rats (n = 4-5)
Procedure: Pharmacokinetic analysis of protease inhibitors described herein was conducted. To evaluate the pharmacokinetics of PEGylated protease inhibitor conjugates with releasable lipophilic attachments, test compounds were administered to male Sprague-Dawley rats.
At various times following test article administration, serial blood samples were collected from indwelling jugular vein catheters and transferred to micro-tubes containing 7.5 μL of 20% w/v K2EDTA as an anticoagulant. Following processing of the blood samples to plasma (10 minutes at 10000 rpm, Centrifuge Model: Kubota 3500), plasma concentrations of the test article or corresponding PEGylated molecule released from the test article was measured using LC-MS/MS methods. Pharmacokinetic parameters were estimated using noncompartmental methods.

| Compound | C24 Mean |
| --- | --- |
| COCCOCCOCCOCCOCCOC(=O)NC(C(=O)NC(Cc1ccccc1)C(CN(Cc1ccc(-c2ccccn2)cc1)NC(=O)C(NC(=O)OC)C(C)(C)C)OC(=O)CNC(=O)C(N)CC(C)C)C(C)(C)C.Cl (stereo not drawn) [Leu-Gly-mPEG5-Atazanavir HCl, Leu-Gly-mPEG5-Atazanavir Hydrochloride] | 18.1 |

same assay, conditions: concentration at 24 hours; mPEG6-atazanavir in plasma after PO administration of mPEG6-ATV or of the listed prodrug, rats (n = 4-5)

| Compound | C24 Mean |
| --- | --- |
| CCCC(=O)OC(CN(Cc1ccc(-c2ccccn2)cc1)NC(=O)C(NC(=O)OC)C(C)(C)C)C(Cc1ccccc1)NC(=O)C(NC(=O)OCCOCCOCCOCCOCCOCCOC)C(C)(C)C (stereo not drawn) [C3H7CO-mPEG6-ATV, mPEG6-Atazanavir Butyrate] | 0.00 |
| CCOCOC(CN(Cc1ccc(-c2ccccn2)cc1)NC(=O)C(NC(=O)OC)C(C)(C)C)C(Cc1ccccc1)NC(=O)C(NC(=O)OCCOCCOCCOCCOCCOCCOC)C(C)(C)C (stereo not drawn) [Methyl ethyl ether mPEG6-ATV, mPEG6-Atazanavir Methyl Ethyl Ether] | 0.00 |

same assay, conditions: mPEG3-atazanavir in plasma after PO administration of mPEG3-ATV or of the listed prodrug, rats (n = 4-5)

| Compound | AUCall Mean [ng·h/mL] | Cmax Mean [ng/mL] | MRT last Mean [h] | Tmax* Median [h] |
| --- | --- | --- | --- | --- |
| CCCCC(=O)OC(CN(Cc1ccc(-c2ccccn2)cc1)NC(=O)C(NC(=O)OC)C(C)(C)C)C(Cc1ccccc1)NC(=O)C(NC(=O)OCCOCCOCCOC)C(C)(C)C (stereo not drawn) [C4H9CO-mPEG3-ATV, C4H9CO-mPEG3-atazanavir] | 40.1 | 7.42 | 3.00 | 1.25 |

same assay, conditions: mPEG5-atazanavir in plasma after PO administration of mPEG5-ATV or of the listed prodrug, rats (n = 4-5)

| Compound | AUCall Mean [ng·h/mL] | Cmax Mean [ng/mL] | MRT last Mean [h] | Tmax Median [h] |
| --- | --- | --- | --- | --- |
| CCCCC(=O)O[C@@H](CN(Cc1ccc(-c2ccccn2)cc1)NC(=O)[C@@H](NC(=O)OC)C(C)(C)C)[C@H](Cc1ccccc1)NC(=O)[C@@H](NC(=O)OCCOCCOCCOCCOCCOC)C(C)(C)C [C4H9CO-PEG5-ATV, C4H9CO-mPEG5-atazanavir] | 39.3 | 9.46 | 2.43 | 0.750 |
| COCCOCCOCCOCCOCCOC(=O)NC(C(=O)NC(Cc1ccccc1)C(CN(Cc1ccc(-c2ccccn2)cc1)NC(=O)C(NC(=O)OC)C(C)(C)C)OCOCCOC)C(C)(C)C (stereo not drawn) [mPEG5-ATV-Methyl ethyl methyl ether, mPEG5-Atazanavir Methyl Ethyl Methyl Ether] | 32.7 | 3.74 | 4.92 | 2.00 |
| COCCOCCOCCOCCOCCOC(=O)NC(C(=O)NC(Cc1ccccc1)C(CN(Cc1ccc(-c2ccccn2)cc1)NC(=O)C(NC(=O)OC)C(C)(C)C)OC(=O)C(N)C(C)C)C(C)(C)C.Cl [mPEG5-ATV-L-valine, mPEG5-Atazanavir-L-valine HCl] | 9.14 | 1.09 | 6.89 | 1.00 |
| COCCOCCOCCOCCOCCOC(=O)NC(C(=O)NC(Cc1ccccc1)C(CN(Cc1ccc(-c2ccccn2)cc1)NC(=O)C(NC(=O)OC)C(C)(C)C)OC(=O)CNC(=O)C(N)CC(C)C)C(C)(C)C.Cl (stereo not drawn) [Leu-Gly-mPEG5-Atazanavir HCl, Leu-Gly-mPEG5-Atazanavir Hydrochloride] | 344 | 19.5 | 11.3 | 12.0 |
| mPEG5-atazanavir-ethoxy-CME-Leu-Leu [mPEG5ATV-Ethoxy-CM-Leu-Leu] | 50.3 | 1.86 | 26.7 | 24.0 |

same assay, conditions: mPEG6-atazanavir in plasma after PO administration of mPEG6-ATV or of the listed prodrug, rats (n = 4-5)

| Compound | AUCall Mean [ng·h/mL] | Cmax Mean [ng/mL] | MRT last Mean [h] | Tmax Median [h] |
| --- | --- | --- | --- | --- |
| CCCCCCCC(=O)OC(CN(Cc1ccc(-c2ccccn2)cc1)NC(=O)C(NC(=O)OC)C(C)(C)C)C(Cc1ccccc1)NC(=O)C(NC(=O)OCCOCCOCCOCCOCCOCCOC)C(C)(C)C (stereo not drawn) [C7H15CO-mPEG6-ATV, O-Octanoyl-mPEG6-Atazanavir] | 66.0 | 11.1 | 4.47 | 2.00 |
| COCCOCCOCCOCCOCCOCCOC(=O)NC(C(=O)NC(Cc1ccccc1)C(CN(Cc1ccc(-c2ccccn2)cc1)NC(=O)C(NC(=O)OC)C(C)(C)C)OP(=O)(O)O)C(C)(C)C (stereo not drawn) [mPEG6-ATV-phosphate, mPEG6-atazanavir phosphate] | 12.1 | 1.23 | 23.4 | 6.13 |
| CCCC(=O)OC(CN(Cc1ccc(-c2ccccn2)cc1)NC(=O)C(NC(=O)OC)C(C)(C)C)C(Cc1ccccc1)NC(=O)C(NC(=O)OCCOCCOCCOCCOCCOCCOC)C(C)(C)C (stereo not drawn) [C3H7CO-mPEG6-ATV, mPEG6-Atazanavir Butyrate] | 6.16 | 2.22 | 1.36 | 2.00 |
| COCCOCCOCCOCCOCCOCCOC(=O)NC(C(=O)NC(Cc1ccccc1)C(CN(Cc1ccc(-c2ccccn2)cc1)NC(=O)C(NC(=O)OC)C(C)(C)C)OC(=O)CNC(=O)C(N)C(C)C)C(C)(C)C.Cl (stereo not drawn) [Val-Gly-mPEG6-ATV, Val-GIy-mPEG6-Atazanavir Hydrochloride] | 194 | 5.11 | 24.3 | 7.00 |
| COCCOCCOCCOCCOCCOCCOC(=O)NC(C(=O)NC(Cc1ccccc1)C(CN(Cc1ccc(-c2ccccn2)cc1)NC(=O)C(NC(=O)OC)C(C)(C)C)OC(C)=O)C(C)(C)C (stereo not drawn) [Acetyl-mPEG6-Atazanavir, O-Acetyl-mPEG6-Atazanavir] | 150 | 10.3 | 13.8 | 6.00 |
| COCCOCCOCCOCCOCCOCCOC(=O)NC(C(=O)NC(Cc1ccccc1)C(CN(Cc1ccc(-c2ccccn2)cc1)NC(=O)C(NC(=O)OC)C(C)(C)C)OC(=O)C(CC(C)C)NC(=O)C(N)Cc1ccccc1)C(C)(C)C.Cl (stereo not drawn) [Phe-Leu-mPEG6-ATV, Phe-Leu-mPEG6-Atazanavir Hydrochloride] | 216 | 27.4 | 11.0 | 1.50 |
| CCOCOC(CN(Cc1ccc(-c2ccccn2)cc1)NC(=O)C(NC(=O)OC)C(C)(C)C)C(Cc1ccccc1)NC(=O)C(NC(=O)OCCOCCOCCOCCOCCOCCOC)C(C)(C)C (stereo not drawn) [Methyl ethyl ether mPEG6-ATV, mPEG6-Atazanavir Methyl Ethyl Ether] | 202 | 38.3 | 10.1 | 2.00 |
| COCCOCCOCCOCCOCCOCCOC(=O)N[C@H](C(=O)N[C@@H](Cc1ccccc1)[C@H](CN(Cc1ccc(-c2ccccn2)cc1)NC(=O)[C@@H](NC(=O)OC)C(C)(C)C)OC(=O)CNC(=O)[C@@H](N)Cc1ccccc1)C(C)(C)C.Cl [Phe-Gly-mPEG6-ATV, Phe-Gly-mPEG6-Atazanavir Hydrochloride] | 217 | 8.86 | 26.1 | 24.0 |
| CCOC(CC)OC(CN(Cc1ccc(-c2ccccn2)cc1)NC(=O)C(NC(=O)OC)C(C)(C)C)C(Cc1ccccc1)NC(=O)C(NC(=O)OCCOCCOCCOCCOCCOCCOC)C(C)(C)C (mixture of isomers) [ATV-1-Ethoxy propoxy-mPEG6, atazanavir-1-ethoxypropoxy-mPEG6] | 185 | 83.0 | 5.16 | 0.750 |
